{"source": "patent US20090124688A1", "about": "“Prostaglandin reductase inhibitors” (priority 2006, published 2009)", "key": {"PGR-2 [1]": {"molecular_target": "T1, PGR-2 (Mus musculus, UniProt Q8VDQ1)", "T1 construct": "GST (N); made in house; host or cells: E. coli", "T1 sequence (Q8VDQ1 whole entry)": "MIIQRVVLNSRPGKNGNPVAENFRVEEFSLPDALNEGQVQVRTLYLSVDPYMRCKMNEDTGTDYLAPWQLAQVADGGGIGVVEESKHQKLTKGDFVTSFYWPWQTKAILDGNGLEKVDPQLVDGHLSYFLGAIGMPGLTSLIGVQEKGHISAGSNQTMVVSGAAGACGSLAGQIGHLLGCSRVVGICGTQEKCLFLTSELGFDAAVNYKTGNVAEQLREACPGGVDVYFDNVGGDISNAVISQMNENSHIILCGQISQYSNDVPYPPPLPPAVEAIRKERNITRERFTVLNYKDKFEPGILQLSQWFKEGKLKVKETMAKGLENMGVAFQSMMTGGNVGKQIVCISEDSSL", "assay": "PGR-2 enzymatic activity: substrate specificity and kinetics", "format": "biochemical", "details": "for specific activity with PGR-2 (substrate specificity): 15-keto PGE2 replaced with the substrate, 0.5 mM NADPH, 2 hours at 37° C.; for reduction catalyzed by PGR-2 (kinetics studies): recombinant PGR-2, NADPH cofactor", "description": "Mouse PGR-2 was recombinantly expressed in E. coli as a GST fusion protein following standard procedures. The recombinant PGR-2 protein thus obtained was used to determine substrate specificity and enzymatic kinetics.\nSubstrate specificity of PGR-2 was determined using the just-described procedure, except that 15-keto PGE2 was replaced with each of six prostaglandin substrates, each of three downstream metabolites, or leukotriene B4. The substrates were purchased from Cayman Chemical Company (Michigan, USA).\nUnlike PGR/LTB4DH, PGR-2 used NADPH as a cofactor much more efficiently than NADH.\nThe substrate was 15-keto prostaglandin E1, 15-keto prostaglandin E2, 15-keto prostaglandin F1α, 15-keto prostaglandin F2α, 15-keto-fluprostenol isopropyl ester, or 15-keto-fluprostenol, which were purchased from Cayman Chemical Company (Michigan, USA). […] Absorbance at 490 nm was measured by an ELISA plate reader."}, "PPARs": {"tested_on": "PPARs", "assay": "Reporter gene assay of endogenous PPARs activity in 3T3-L1 cells", "format": "cell-based, mouse", "details": "3T3-L1 cells induced to differentiate for two days, transfected with reporter gene", "description": "(§1) The effect of prostaglandin on PPAR-γ activity in adipocytes was investigated. After treatment with a medium that induces cell differentiation, 3T3-L1 cells were treated from day 2 to 4 during adipogenesis with 14 μM 15-keto PGE2, 13,14-dihydro-15-keto PGE2, 15-keto PGF2α, 13,14-dihydro-15-keto PGF2α, or 4.5 μM of BRL49653 (a PPAR-γ agonist). See Forman et al., Cell (1995) 83:803-812. At day 6, aggregates of lipid droplets were stained with oil-red O for observation. […] After being induced to differentiate for two days, the 3T3-L1 cells were transfected with a reporter gene."}, "PPAR-γ [2]": {"molecular_target": "T2, PPAR-γ (Homo sapiens, UniProt P37231)", "T2 construct": "expressed in transfected cells; host or cells: 3T3-L1", "T2 sequence (P37231 238-503 limits assumed)": "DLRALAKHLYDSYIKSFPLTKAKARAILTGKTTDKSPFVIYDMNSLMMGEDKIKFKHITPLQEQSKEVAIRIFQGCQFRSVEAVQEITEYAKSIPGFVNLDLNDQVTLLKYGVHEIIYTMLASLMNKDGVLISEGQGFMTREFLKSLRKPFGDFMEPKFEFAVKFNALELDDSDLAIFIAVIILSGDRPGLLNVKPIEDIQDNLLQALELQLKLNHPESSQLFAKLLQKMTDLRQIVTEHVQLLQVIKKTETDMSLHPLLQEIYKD", "assay": "Luciferase reporter with PPAR ligand-binding domain fused to GAL4 DNA-binding domain in 3T3-L1 cells", "format": "cell-based", "excerpt": "(§2) A luciferase reporter gene was transfected to 3T3-L1 cells together with the ligand-binding domain of […], PPAR-γ or […] fused to a yeast GAL4 DNA-binding domain."}, "PPAR-α": {"molecular_target": "T3, PPAR-α (Homo sapiens, UniProt Q07869)", "T3 construct": "expressed in transfected cells; host or cells: 3T3-L1", "T3 sequence (Q07869 239-466 limits assumed)": "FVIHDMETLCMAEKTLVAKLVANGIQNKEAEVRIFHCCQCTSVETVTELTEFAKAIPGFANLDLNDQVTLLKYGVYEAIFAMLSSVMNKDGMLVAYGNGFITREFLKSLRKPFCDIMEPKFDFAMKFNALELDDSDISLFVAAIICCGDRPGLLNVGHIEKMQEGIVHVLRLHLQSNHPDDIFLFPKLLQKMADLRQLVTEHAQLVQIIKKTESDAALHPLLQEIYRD", "assay": "Luciferase reporter with PPAR ligand-binding domain fused to GAL4 DNA-binding domain in 3T3-L1 cells", "format": "cell-based", "details": "relative to PPAR-γ activation", "excerpt": "as §2"}, "3T3-L1 cells [3]": {"tested_on": "3T3-L1 cells", "assay": "Adipogenesis in 3T3-L1 cells, oil-red O staining of lipid droplets", "format": "cell-based, mouse", "details": "14 μM, day 2 to 4 during adipogenesis; stained at day 6", "description": "as §1"}, "PPAR-γ target genes": {"tested_on": "PPAR-γ target genes", "assay": "Protein expression of adipogenesis-specific PPAR-γ target genes in 3T3-L1 cells", "format": "cell-based, mouse", "excerpt": "Also examined was the ability of 15-keto PGE2 to induce protein expression of adipogenesis-specific, PPAR-γ target genes, i.e., IRS-1and -2."}, "3T3-L1 cells [4]": {"tested_on": "3T3-L1 cells", "assay": "Glucose transport assay, uptake of 2-deoxy-D-[3H]glucose in differentiated 3T3-L1 cells", "format": "cell-based, mouse", "description": "3T3-L1cells were induced to differentiate in the same manner as described above. A glucose transport assay was performed by measuring uptake of 2-deoxy-D-[3H]glucose as described by Fingar et al. See Fingar et al., Endocrinology 134:728-735. 1.67 μM of the compound or 45 nM of a PPARs agonist, i.e., Avandia, was added to the cells. 10 μM cytochalasin-B was used to measure background glucose uptake levels."}, "[5]": {"tested_on": "Female diabetic mice (C57BLKS/J-m+/+Lep^db)", "assay": "Blood glucose levels in diabetic mice", "format": "in vivo, mouse", "details": "25 mg/kg intraperitoneally twice a day for two days; fasted 48th through 52nd hour", "description": "The in vivo effect compound 45 on glucose metabolism was also investigated. Female diabetic mice were obtained from the Jackson Laboratory (C57BLKS/J-m+/+Lep^db, 12 to 13 weeks old). These mice were characterized as insulin-resistant and hyperglycemic. 25 mg/kg of 2,2′-dihydroxychalcone (n=8) or placebo (n=4, final concentration against body fluid: 0.5% DMSO/1% ethanol) was injected intraperitoneally to the mice twice a day for two days. The mice were then fasted from the 48th hour through 52nd hour after the first injection. Blood samples were collected from the retro-orbital sinus before the first injection, and every two hours after two days of treatment. Blood glucose levels were measured by an electrode-type blood glucose meter (HORIBA, AntSense II, Japan)."}, "PPAR-γ [6]": {"tested_on": "PPAR-γ", "assay": "Transcriptional activation of PPAR-γ after siRNA transfection", "format": "cell-based", "details": "transfection of siRNA duplexes", "excerpt": "(§3) An RNA interference (RNAi) approach was used to silence PGR-2 expression. Two small interfering RNA (siRNA) duplexes, i.e., […] (SEQ ID NO:7) and […] (SEQ ID NO:8), were annealed first and then introduced into 3T3-L1 fibroblasts or differentiating pre-adipocytes by transfection using oligofectamine (Invitrogen). Transfection of the siRNA duplexes reduced PGR-2 expression. In another experiment, transfection of the siRNA duplexes increased transcriptional activation of PPAR-γ. Thus, one can modulate PPAR-γ activity via silencing PGR-2 expression by RNA interference."}, "PGR-2 [7]": {"tested_on": "PGR-2", "assay": "RNA interference silencing of PGR-2 expression in 3T3-L1 cells", "format": "cell-based, mouse", "details": "transfection into 3T3-L1 fibroblasts or differentiating pre-adipocytes", "excerpt": "as §3"}}, "data": [{"compound": "CCCCC[C@H](O)/C=C/[C@@H]1[C@@H](CC(=O)CCCCC(=O)O)[C@@H](O)C[C@H]1O", "note": "[6-keto PGF1α]", "values": [{"measurement": "specific activity with PGR-2 (substrate specificity)", "setting": "PGR-2 [1]", "value": "no specific activity was detected"}]}, {"compound": "CCCCCC(=O)CC[C@H]1[C@H](O)CC(=O)[C@@H]1C/C=C\\CCCC(=O)O", "note": "[13,14-dihydro-15-keto PGE2]", "values": [{"measurement": "specific activity with PGR-2 (substrate specificity)", "setting": "PGR-2 [1]", "value": "no specific activity was detected"}, {"measurement": "endogenous PPARs activity (reporter gene)", "setting": "PPARs", "value": "failed to increase PPARs activity"}]}, {"compound": "CCCCCC(=O)CC[C@@H]1[C@@H](C/C=C\\CCCC(=O)O)[C@@H](O)C[C@H]1O", "note": "[13,14-dihydro-15-keto PGF2α]", "values": [{"measurement": "endogenous PPARs activity (reporter gene)", "setting": "PPARs", "value": "failed to increase PPARs activity"}]}, {"compound": "CCCCCC(=O)/C=C/[C@H]1[C@H](O)CC(=O)[C@@H]1CCCCCCC(=O)O", "note": "[15-keto PGE1, 15-keto prostaglandin E1]", "values": [{"measurement": "specific activity with PGR-2 (substrate specificity)", "setting": "PGR-2 [1]", "value": "reacted specifically"}, {"measurement": "reduction catalyzed by PGR-2 (kinetics studies)", "setting": "PGR-2 [1]", "value": "catalyzed reduction"}]}, {"compound": "CCCCCC(=O)/C=C/[C@H]1[C@H](O)CC(=O)[C@@H]1C/C=C\\CCCC(=O)O", "note": "[15-keto PGE2, 15-keto prostaglandin E2]", "values": [{"measurement": "activation of PPAR-γ (GAL4 fusion, luciferase reporter)", "setting": "PPAR-γ [2]", "value": "activated"}, {"measurement": "activation of PPAR-α (GAL4 fusion, luciferase reporter)", "setting": "PPAR-α", "value": "to a lesser degree"}, {"measurement": "adipogenesis (lipid droplets stained with oil-red O)", "setting": "3T3-L1 cells [3]", "value": "effectively enhanced adipogenesis at a level similar to BRL49653"}, {"measurement": "amount of IRS-1 protein", "setting": "PPAR-γ target genes", "value": "did not increase"}, {"measurement": "PPAR-γ1 and PPAR-γ2 expression", "setting": "PPAR-γ target genes; added with MIX, insulin and dexamethasone", "value": "significantly enhanced"}, {"measurement": "expression of aP2, an adipocyte-specific marker", "setting": "PPAR-γ target genes; even in the absence of MIX", "value": "strongly induced"}, {"measurement": "IRS-2 expression", "setting": "PPAR-γ target genes; in the presence of insulin and dexamethasone", "value": "enhanced the expression to a level similar to MIX"}, {"measurement": "reduction catalyzed by PGR-2 (kinetics studies)", "setting": "PGR-2 [1]", "value": "catalyzed reduction"}, {"measurement": "endogenous PPARs activity (reporter gene)", "setting": "PPARs", "value": "enhanced endogenous PPARs activity significantly"}]}, {"compound": "CCCCCC(=O)/C=C/[C@@H]1[C@@H](CCCCCCC(=O)O)[C@@H](O)C[C@H]1O", "note": "[15-keto PGF1α, 15-keto prostaglandin F1α]", "values": [{"measurement": "specific activity with PGR-2 (substrate specificity)", "setting": "PGR-2 [1]", "value": "reacted specifically"}, {"measurement": "reduction catalyzed by PGR-2 (kinetics studies)", "setting": "PGR-2 [1]", "value": "catalyzed reduction"}]}, {"compound": "CCCCCC(=O)/C=C/[C@@H]1[C@@H](C/C=C\\CCCC(=O)O)[C@@H](O)C[C@H]1O", "note": "[15-keto PGF2α, 15-keto prostaglandin F2α]", "values": [{"measurement": "activation of PPAR-γ (GAL4 fusion, luciferase reporter)", "setting": "PPAR-γ [2]", "value": "activated"}, {"measurement": "activation of PPAR-α (GAL4 fusion, luciferase reporter)", "setting": "PPAR-α", "value": "to a lesser degree"}, {"measurement": "specific activity with PGR-2 (substrate specificity)", "setting": "PGR-2 [1]", "value": "reacted specifically"}, {"measurement": "reduction catalyzed by PGR-2 (kinetics studies)", "setting": "PGR-2 [1]", "value": "catalyzed reduction"}, {"measurement": "endogenous PPARs activity (reporter gene)", "setting": "PPARs", "value": "enhanced endogenous PPARs activity significantly"}]}, {"compound": "CC(C)OC(=O)CCC/C=C\\C[C@@H]1[C@@H](/C=C/C(=O)COc2cccc(C(F)(F)F)c2)[C@H](O)C[C@@H]1O", "note": "[15-keto fluprostenol isopropyl ester]", "values": [{"measurement": "reduction catalyzed by PGR-2 (kinetics studies)", "setting": "PGR-2 [1]", "value": "catalyzed reduction"}]}, {"compound": "O=C(O)CCC/C=C\\C[C@@H]1[C@@H](/C=C/C(=O)COc2cccc(C(F)(F)F)c2)[C@H](O)C[C@@H]1O", "note": "[15-keto fluprostenol]", "values": [{"measurement": "reduction catalyzed by PGR-2 (kinetics studies)", "setting": "PGR-2 [1]", "value": "catalyzed reduction"}]}, {"compound": "O=C(c1cc2cc(Cl)ccc2oc1=O)c1cc2cc(Cl)ccc2oc1=O", "note": "[Compound 27]", "values": [{"measurement": "ability to enhance glucose uptake compared with Avandia", "setting": "3T3-L1 cells [4]; 1.67 μM compound vs 45 nM Avandia", "value": "comparable to that of Avandia"}, {"measurement": "increase of glucose uptake", "setting": "3T3-L1 cells [4]; differentiated 3T3-L1 cells, 1.67 μM compound, 100 nM insulin to stimulate uptake", "value": 30, "unit": "folds"}]}, {"compound": "O=C(/C=C/c1ccccc1O)c1ccccc1O", "note": "[Compound 45, 2,2′-dihydroxychalcone]", "values": [{"measurement": "blood glucose levels compared to placebo controls", "setting": "[5]", "value": "significant reduction"}]}, {"compound": "CCCCC/C=C\\C[C@@H](O)/C=C/C=C/C=C\\[C@@H](O)CCCC(=O)O", "note": "[leukotriene B4]", "values": [{"measurement": "specific activity with PGR-2 (substrate specificity)", "setting": "PGR-2 [1]", "value": "no specific activity was detected"}]}, {"compound": "SEQ ID NO:7: small interfering RNA (siRNA) duplex gaguucaguuuaccggaug to silence PGR-2 expression (GAGUUCAGUUUACCGGAUG; chemistry not given here)", "values": [{"measurement": "transcriptional activation of PPAR-γ", "setting": "PPAR-γ [6]", "value": "increased"}, {"measurement": "PGR-2 expression", "setting": "PGR-2 [7]", "value": "reduced"}]}, {"compound": "SEQ ID NO:8: small interfering RNA (siRNA) duplex guucaagugaggacucuuu to silence PGR-2 expression (GUUCAAGUGAGGACUCUUU; chemistry not given here)", "values": [{"measurement": "transcriptional activation of PPAR-γ", "setting": "PPAR-γ [6]", "value": "increased"}, {"measurement": "PGR-2 expression", "setting": "PGR-2 [7]", "value": "reduced"}]}]}
